Experimental data taken from paper PMC12724303 (Journal of Virology, 2025).
pIC50: −log10 of the molar value. Where two headings read alike, the source gives them in different places.

Experiments:
[1] = test system: SARS-CoV-2 Wuhan variant; format: cell-based
[2] = test system: SARS-CoV-2 virion-associated aminophospholipids (procoagulant activity); format: biochemical
[3] = test system: SARS-CoV-2 Wuhan variant; assay: microbe, parasite or virus in culture; format: cell-based
[4] = test system: SARS-CoV-2 Delta variant; format: cell-based
[5] = test system: SARS-CoV-2 Wuhan variant; format: cell-based; remark: listed apart in the source
[6] = test system: SARS-CoV-2 Wuhan variant in Vero E6 cells; format: cell-based
[7] = test system: SARS-CoV-2 viral particles; format: cell-based
[8] = test system: SARS-CoV-2 Wuhan variant in Vero E6/TMPRSS2 cells; format: cell-based
[9] = test system: SARS-CoV-2 Wuhan variant virions
[10] = test system: SARS-CoV-2 Beta variant; format: cell-based
[11] = test system: SARS-CoV-2 Wuhan variant particles (N protein and spike protein)

Compound | infection inhibitory activity (cytopathic effect) [1] | effect on clotting time ([2]; 5 mM) | selectivity index (SI = CC50/IC50) [3] | pIC50 ([3]; Severe acute respiratory syndrome coronavirus 2, VeroE6/TMPRSS2, 72 h, read-out: IC50 against SARS-CoV-2 infection) | infection inhibitory activity (cytopathic effect) [4] | intracellular SARS-CoV-2 gRNA level (viral entry) [5] | viral entry [5] | reduction in TCID50/mL compared with the control [6] | reduction of infectivity by pretreatment of viral particles [7] | concentration at the highest dilution completely inhibiting the cytopathic effect [1] [µM] | highest dilution completely inhibiting the cytopathic effect [1] [fold] | infectivity of treated virus [8] | binding of viral particles to anti-RBD antibody-coated plate (RNA quantification) [9] | effect on clotting time [2] | effect on clotting time ([2]; 10 mM, 37°C) | concentration at the highest dilution completely inhibiting the cytopathic effect [4] [µM] | highest dilution completely inhibiting the cytopathic effect [4] [fold] | concentration at the highest dilution completely inhibiting the cytopathic effect [10] [µM] | highest dilution completely inhibiting the cytopathic effect [10] [fold] | band intensities of N protein and spike protein [11]
COC[C@H]1O[C@@H]2O[C@H]3[C@H](O)[C@@H](OC)[C@@H](O[C@H]4[C@H](O)[C@@H](OC)[C@@H](O[C@H]5[C@H](O)[C@@H](OC)[C@@H](O[C@H]6[C@H](O)[C@@H](OC)[C@@H](O[C@H]7[C@H](O)[C@@H](OC)[C@@H](O[C@H]8[C@H](O)[C@@H](OC)[C@@H](O[C@H]1[C@H](O)[C@H]2OC)O[C@@H]8COC)O[C@@H]7COC)O[C@@H]6COC)O[C@@H]5COC)O[C@@H]4COC)O[C@@H]3COC [DM-β-CyD, 2,6-di-O-methyl-β-cyclodextrin] | showed infection inhibitory activity | no effect on clotting time | 4.04 | 2.85 | showed infection inhibitory activity |  |  |  |  |  |  |  |  |  |  |  |  |  |  | 
COC[C@H]1O[C@@H]2O[C@H]3[C@H](OC(C)=O)[C@@H](OC)[C@@H](O[C@H]4[C@H](OC(C)=O)[C@@H](OC)[C@@H](O[C@H]5[C@H](OC(C)=O)[C@@H](OC)[C@@H](O[C@H]6[C@H](OC(C)=O)[C@@H](OC)[C@@H](O[C@H]7[C@H](OC(C)=O)[C@@H](OC)[C@@H](O[C@H]8[C@H](OC(C)=O)[C@@H](OC)[C@@H](O[C@H]1[C@H](OC(C)=O)[C@H]2OC)O[C@@H]8COC)O[C@@H]7COC)O[C@@H]6COC)O[C@@H]5COC)O[C@@H]4COC)O[C@@H]3COC [DMA-β-CyD] | showed infection inhibitory activity |  |  |  | showed infection inhibitory activity | decreased in a DMA-β-CyD-concentration-dependent manner | inhibited the entry of these particles | 2.22 | 2.25–2.67 | 156 | 64 | 7.34 × 10^3 TCID50/mL | concentration-dependent decrease in binding | insufficient recovery of clotting time | markedly prolonged clotting time | 156 | 64 | 625 | 16 | marked reduction in the band intensities of both proteins
hydroxypropyl-α-cyclodextrin [HP-α-CyD] | showed infection inhibitory activity |  |  |  |  |  |  |  |  |  |  |  |  |  |  |  |  |  |  | 
